In publication PMC6017121, “New Thiazoline-Tetralin Derivatives and Biological Activity Evaluation” (Molecules : A Journal of Synthetic Chemistry and Natural …, 2018):

Key:
[1] = tested on: human breast adenocarcinoma cell line (MCF-7); assay: MTT cytotoxicity assay on MCF-7; format: cell-based; conditions: for IC50: MTT, 24 h incubation; for SI MCF-7 (selectivity index): NIH/3T3 versus MCF-7
Method: (§1) This is a colorimetric assay that measures the reduction of 3-(4,5-dimethylthiazol-2-yl)-2,4,diphenyltetrazolium bromide (MTT) by mitochondria. All final compounds were tested against human breast adenocarcinoma cell line (MCF-7), human lung carcinoma cell line (A549) and mouse embryooblast cell line (NIH/3T3) to determine their cytotoxic profile. Cancer cells were cultured in RPMI medium (Hyclone, Thermo Scientific, Waltham, MA, USA) at 37 °C in a humidified atmosphere of 95% air and 5% CO2. The studied cells were situated at 2 × 10^4 cells into each well of 96-well microtiter tissue culture plates (Nunc, Denmark) and incubated for 24 h. After that, test compounds were dissolved in DMSO and added to culture wells at varying concentrations (85–1000 µM). After a 24 h incubating period, […] MTT solution (5 mg/mL MTT powder in PBS) was added to each well and the cells were incubated for 4 h at 37 °C. The purple formazan crystals produced were dissolved in DMSO and the absorbance was read by ELISA reader (OD570 nm). The percent values of cell proliferations were calculated relative to controls, whose cell proliferations were accepted as 100% [47].

[2] = tested on: A549 cells; assay: Annexin V-FITC/propidium iodide flow cytometry on A549; format: cell-based, human; conditions: A549 cell line, IC50 concentration; for % Early Apoptotic / % Late Apoptotic / % Necrotic / % Viable: 24 h
Method: (§2) Evaluation of apoptosis was carried out through the Annexin V-FITC Apoptosis Detection Kit from BD, Pharmingen, according to the manufacturer’s instruction. […] Then cells were rinsed with cold water twice and resuspended in Annexin V-FITC binding buffer at a concentration of 1 × 10^6 cells/mL. […] of Annexin V-FITC was used to stain the cells. After 15 min of incubation at 25 °C, the cell suspension was centrifugated for 5 min and cells were resuspended in Annexin V-FITC binding buffer. Propidium iodide ([…]) was added and the tubes were situated on ice and away from light. The fluorescence was measured using a flow cytometer. The results were analyzed by using FCSExpress software and represented as percentage of normal and apoptotic cells at various stages. […] The four areas in the diagrams stand for necrotic cells (Q1, positive for PI and negative for annexin/FITC, left square on the top), live cells (Q3, negative for annexin and PI, left square at the bottom), late apoptotic or necrotic cells (Q2, positive for annexin and PI, right square on the top) and apoptotic cells (Q4, negative for PI and positive for annexin, right square at the bottom), respectively. The experiment was repeated three times.

[3] = tested on: human lung carcinoma cell line (A549); assay: MTT cytotoxicity assay on A549; format: cell-based; conditions: for IC50: MTT, 24 h incubation; for SI A549 (selectivity index): NIH/3T3 versus A549
Method: as §1

[4] = tested on: MCF-7 cells; assay: Annexin V-FITC/propidium iodide flow cytometry on MCF-7; format: cell-based, human; conditions: MCF-7 cell line, IC50 concentration; for % Early Apoptotic / % Late Apoptotic / % Necrotic / % Viable: 24 h
Method: as §2

[5] = tested on: A549 cells; assay: DNA synthesis inhibition (BrdU) on A549
Method: The 5-bromo-2′-deoxy-uridine (BrdU) cell proliferation assay [48] was used to detect the proliferation of A549 and C6 cells. […] At the end of each day, the cells were labelled with 10 mL BrdU solution for 2 h and then fixed. Anti-BrdU-POD (100 mL) was added and incubated for 90 min. Finally, microtiter plates were washed with phosphate buffered saline (PBS) three times and the cells were incubated with substrate solution until the color was sufficient for photometric detection. […] The growth percentage was evaluated spectrophotometrically versus untreated controls with used cell viability of growth assay. Results for each spectrophotometrical measure were noticed as percent of growth inhibition. All experiments were done in triplicates.
Mean percent absorbance of untreated control cells were assumed 0%. […] Data points represent means for three independent wells ± SD. p < 0.05.

[6] = tested on: mouse embryoblast cell line (NIH/3T3); assay: MTT cytotoxicity assay on NIH/3T3 (healthy cells); format: cell-based; conditions: NIH3T3, 24 h incubation
Method: as §1

[7] = target: acetylcholinesterase (AChE) (Homo sapiens, UniProt P22303); assay: biochemical; conditions: 80 µg/mL (~160 µM)
Method: (§3) In order to determine the acetyl- and butyrylcholinesterase enzyme inhibitions, experiments were carried out by making some changes in the method developed by Ellman. Samples were prepared by dissolving in the appropriate solvent. Adding 20 μL enzyme solution (AChE or BuChE, 1 U/mL) and 10 μL sample solution to 2.4 mL buffer solution and it was incubated for 15 min at 37 °C. After incubation, 50 μL DTNB and 75 mM ATCI solution or 20 μL of 25 mM BTCI solution were added and allowed the mixture to incubate at room temperature for 30 min. For the control group, only 10 μL of solvent was added instead of the sample solution provided all protocols are the same. […] Experiments were run in triplicate. The inhibition fractions of AChE […] BuChE enzymes were calculated using the following equation:I(%) = 100 − ([…]) × 100

[8] = target: butyrylcholinesterase (BuChE) (Homo sapiens, UniProt P06276); assay: biochemical; conditions: 80 µg/mL (~160 µM)
Method: as §3

[9] = tested on: MCF-7 cells; assay: DNA synthesis inhibition (BrdU) on MCF-7; conditions: for DNA synthesis inhibition on MCF-7 at IC50/2: IC50/2 concentration (4b 34.6 μM; 4d 36.9 μM, b49: 35.9 μM)
[10] = Homo sapiens, MCF7, 96 h, read-out: DNA synthesis inhibition on MCF-7 at IC50

Sequence of acetylcholinesterase (AChE) (P22303 32-614, species assumed): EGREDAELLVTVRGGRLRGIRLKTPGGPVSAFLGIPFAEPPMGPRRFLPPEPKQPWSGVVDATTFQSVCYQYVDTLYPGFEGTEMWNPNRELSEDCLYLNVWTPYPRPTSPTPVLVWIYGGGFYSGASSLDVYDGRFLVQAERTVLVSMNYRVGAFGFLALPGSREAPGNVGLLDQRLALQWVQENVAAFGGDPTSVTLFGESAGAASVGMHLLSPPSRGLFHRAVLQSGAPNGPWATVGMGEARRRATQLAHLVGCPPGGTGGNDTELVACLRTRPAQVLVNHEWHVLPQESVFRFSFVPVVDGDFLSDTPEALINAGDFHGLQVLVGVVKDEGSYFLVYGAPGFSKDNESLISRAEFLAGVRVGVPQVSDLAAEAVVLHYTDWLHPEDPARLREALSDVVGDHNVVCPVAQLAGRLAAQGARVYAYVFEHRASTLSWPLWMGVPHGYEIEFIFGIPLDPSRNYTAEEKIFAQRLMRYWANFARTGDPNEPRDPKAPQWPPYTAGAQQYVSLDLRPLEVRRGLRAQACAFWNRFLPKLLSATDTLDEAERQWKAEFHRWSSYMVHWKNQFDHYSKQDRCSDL
Sequence of butyrylcholinesterase (BuChE) (P06276 29-602): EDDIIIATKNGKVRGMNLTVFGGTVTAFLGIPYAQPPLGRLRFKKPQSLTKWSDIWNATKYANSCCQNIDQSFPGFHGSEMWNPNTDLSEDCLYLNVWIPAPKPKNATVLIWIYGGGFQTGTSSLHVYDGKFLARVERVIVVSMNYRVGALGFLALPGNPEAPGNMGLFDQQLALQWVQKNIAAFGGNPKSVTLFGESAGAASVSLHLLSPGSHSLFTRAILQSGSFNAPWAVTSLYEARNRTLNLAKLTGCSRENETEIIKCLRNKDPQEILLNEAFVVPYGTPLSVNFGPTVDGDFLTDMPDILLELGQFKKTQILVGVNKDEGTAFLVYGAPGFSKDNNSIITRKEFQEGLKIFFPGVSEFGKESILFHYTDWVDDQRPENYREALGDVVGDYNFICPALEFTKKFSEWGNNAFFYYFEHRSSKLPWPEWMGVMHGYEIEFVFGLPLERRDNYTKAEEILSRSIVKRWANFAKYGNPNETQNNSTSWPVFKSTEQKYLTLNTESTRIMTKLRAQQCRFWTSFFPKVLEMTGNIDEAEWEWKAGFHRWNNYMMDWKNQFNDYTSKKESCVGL

| Compound | apoptosis (early + late apoptotic cell percentage) A549 [2] | % Early Apoptotic [2] [%] | % Late Apoptotic [2] [%] | % Necrotic [2] [%] | apoptosis (early + late apoptotic cell percentage) MCF-7 [4] [%] | % Early Apoptotic [4] [%] | % Late Apoptotic [4] [%] | % Necrotic [4] [%] | IC50 [6] [µM] | IC50 ([1]; Homo sapiens, MCF7) [µM] | SI MCF-7 (selectivity index) [1] | % Viable [2] [%] | IC50 ([3]; Homo sapiens, A549) [µM] | SI A549 (selectivity index) [3] | % Viable [4] [%] | inhibition at 160 µM [7] [%] | inhibition at 160 µM [8] [%] | DNA synthesis inhibition on MCF-7 at IC50/2 [9] [%] | inhibition at 80 µg/mL [8] [%] | also measured |
| --- | --- | --- | --- | --- | --- | --- | --- | --- | --- | --- | --- | --- | --- | --- | --- | --- | --- | --- | --- | --- |
| N.N.[Cl][Pt][Cl] [Cisplatin, cisplatin, reference compound] | 40.2% | 14.9 | 25.3 | 6.7 | 29.9 | 2.8 | 27.1 | 28.1 |  |  |  |  |  |  |  |  |  |  |  | IC50 [1]: 100 ± 3.3 µM; IC50 [3]: 108 ± 11.8 µM; DNA synthesis inhibition on A549 at IC50/2 ([5]; IC50/2 concentration (4h 24.3 μM; cisplatin 54.2 μM)): 32.86%; DNA synthesis inhibition on A549 at IC50 ([5]; IC50 concentration (4h 48.6 μM; cisplatin 108.3 μM)): 50.33% |
| COc1ccc(-c2csc(=NNC(=O)COc3ccc4c(c3)CCCC4)n2C2CCCCC2)cc1 [Compound 4b, N′-[3-Cyclohexyl-4-(4-methoxyphenyl)thiazole-2(3H)-ylidene]-2-[(5,6,7,8-tetrahydronaphthalen-2-yl)oxy]acetohydrazide] | 73.6% | 6.6 | 67.0 | 15.6 | 29.8 | 0.7 | 29.1 | 63.8 | 55.7 ± 1.2 | 69.2 ± 5.8 | 0.8 | 10.9 | 138 ± 7.2 | 0.4 | 6.3 | 11.1 ± 1.48 | 15.9 ± 1.72 | 31.39 |  | inhibition at 69.2 µM [9, 10]: 48.5% |
| Cc1ccc(-c2csc(=NNC(=O)COc3ccc4c(c3)CCCC4)n2-c2ccccc2)cc1 [Compound 4d, N′-[3-Phenyl-4-(4-methylphenyl)thiazole-2(3H)-ylidene]-2-[(5,6,7,8-tetrahydronaphthalen-2-yl)oxy]acetohydrazide] |  |  |  |  |  | 1.1 | 12.1 | 36.1 | > 1000 | 71.8 ± 12.5 | > 13.9 |  | > 1000 |  | 50.7 | 43.2 ± 1.56 | 33.2 ± 2.38 | 47.75 |  | inhibition at 71.8 µM [9, 10]: 72.2% |
| COc1ccc(-c2csc(=NNC(=O)COc3ccc4c(c3)CCCC4)n2-c2ccccc2)cc1 [Compound 4e, N′-[3-Phenyl-4-(4-methoxyphenyl)thiazole-2(3H)-ylidene]-2-[(5,6,7,8-tetrahydronaphthalen-2-yl)oxy]acetohydrazide] |  |  |  |  | 32.5 |  |  |  | > 1000 | 91.4 ± 9.8 | > 10.9 |  | 708 ± 83.3 | > 1.4 |  | 10.8 ± 0.94 |  |  | < 0 |  |
| O=C(COc1ccc2c(c1)CCCC2)N/N=c1\scc(-c2ccc(F)cc2)n1-c1ccccc1 [Compound 4h, N′-[3-Phenyl-4-(4-florophenyl)thiazole-2(3H)-ylidene]-2-[(5,6,7,8-tetrahydronaphthalen-2-yl)oxy]acetohydrazide] | over 50% | 23.7 | 26.4 | 4.0 |  |  |  |  | 247 ± 12.2 | 243 ± 14.9 | 1.0 | 45.9 | 48.6 ± 6 | 5.1 |  | 49.9 ± 1.44 |  |  | < 0 | inhibition at 48.6 µM ([5]; Homo sapiens, A549, 4 h, read-out: DNA synthesis inhibition on A549 at IC50, IC50 concentration (4h 48.6 μM; cisplatin 108.3 μM)): 50.8% |
| O=C(COc1ccc2c(c1)CCCC2)NN=c1scc(-c2cccc(Cl)c2Cl)n1-c1ccccc1 [Compound 4k, N′-[3-Phenyl-4-(2,3-dichlorophenyl)thiazole-2(3H)-ylidene]-2-[(5,6,7,8-tetrahydronaphthalen-2-yl)oxy]acetohydrazide] |  |  |  |  |  | 2.4 | 8.9 | 34.4 | 165 ± 11 | 153 ± 27.5 | 1.1 |  | > 1000 |  | 54.3 | 15.2 ± 1.99 |  |  | < 0 |  |
